Marks after values point to notes of the source that are not given here. Strand notation (5' to 3'): a small letter for the sugar, then the base; units joined by * are phosphorothioate-linked, units joined directly phosphodiester-linked; [ ] holds rarer units or linkages, { } end groups; capitals alone tell only the bases. k = constrained ethyl (cEt); [5mC] = 5-methylcytosine; d = 2'-deoxy (DNA)
Tested on: Yap1 mRNA
Assay: Antisense inhibition of human Yap1 in A-431 cells by cEt gapmers, single dose (Example 2, RTS4814)
Assay type: cell-based
Procedure: Modified oligonucleotides were designed to target a Yap1 nucleic acid and were tested for their effect on Yap1 mRNA level in vitro. The modified oligonucleotides were tested in a series of experiments that had similar culture conditions. Cultured A-431 cells at a density of 5,000 cells per well were treated using free uptake with 2,000 nM of modified oligonucleotide. After a treatment period of approximately 48 hours, RNA was isolated from the cells and Yap1 mRNA levels were measured by quantitative real-time RTPCR. Human primer probe set RTS4814 was used to measure mRNA levels. Yap1 mRNA levels were normalized to total RNA content, as measured by RIBOGREEN®. Results are presented in the tables below as percent control of the amount of Yap1 mRNA relative to untreated control cells (% UTC). The modified oligonucleotides with percent control values marked with an asterisk (*) target the amplicon region of the primer probe set. Additional assays may be used to measure the potency and efficacy of the modified oligonucleotides targeting the amplicon region.
The newly designed modified oligonucleotides in the Tables below were designed as 3-10-3 cEt gapmers. The gapmers are 16 nucleosides in length, wherein the central gap segment comprises of ten 2′-deoxynucleosides and is flanked by wing segments on the 5′ direction and the 3′ direction comprising three nucleosides each. Each nucleoside in the 5′ wing segment and each nucleoside in the 3′ wing segment has a cEt sugar modification. The internucleoside linkages throughout each gapmer are phosphorothioate (P═S) linkages. All cytosine residues throughout each gapmer are 5-methylcytosines.
“Start site” indicates the 5′-most nucleoside to which the gapmer is targeted in the human gene sequence. “Stop site” indicates the 3′-most nucleoside to which the gapmer is targeted human gene sequence. […] Activity ofthe modified oligonucleotide may be defined in a different experiment.

[1] = Table 21, Yap1 mRNA, percent of untreated control, 3-10-3 cEt gapmers targeting SEQ ID NO.: 1 and 2
[2] = Table 18, A-431 cells, 5,000 cells per well, free uptake, 2,000 nM modified oligonucleotide, approx. 48 hours, RTS4814, normalized to RIBOGREEN, Yap1 mRNA as percent of untreated control
[3] = Table 32, Yap1 mRNA, percent of untreated control, 3-10-3 cEt gapmers targeting SEQ ID NO.: 1, and 2
[4] = Yap1 mRNA as percent of untreated control, A-431 cells, 3-10-3 cEt gapmers targeting SEQ ID NO.: 1, and 2, Table 30
[5] = Table 6, A-431 cells, 5,000 cells per well, free uptake, 2,000 nM modified oligonucleotide, approx. 48 hours, RTS4814, normalized to RIBOGREEN, Yap1 mRNA relative to untreated control cells
[6] = Table 25, Yap1 mRNA as percent of untreated control, 3-10-3 cEt gapmers targeting SEQ ID NO.: 1, and 2
[7] = Table 20, Yap1 mRNA, percent of untreated control, 3-10-3 cEt gapmers targeting SEQ ID NO.: 1 and 2
[8] = Table 22, Yap1 mRNA as percent of untreated control, 3-10-3 cEt gapmers, single dose
[9] = Table 23, Yap1 mRNA as percent of untreated control, 3-10-3 cEt gapmers, single dose
[10] = Table 19, A-431 cells, 5,000 cells per well, free uptake, 2,000 nM modified oligonucleotide, approx. 48 hours, RTS4814, normalized to RIBOGREEN, Yap1 mRNA as percent of untreated control

1074599 (antisense kG*k[5mC]*kT*dA*dA*d[5mC]*dT*d[5mC]*dA*dA*dA*dA*d[5mC]*k[5mC]*kT*kT) [Compound 1074599]
YAP1 (% UTC) [1]: 12 % UTC

1076234 (k[5mC]*k[5mC]*kT*dT*dA*dA*dT*dA*dT*dA*dT*d[5mC]*d[5mC]*kA*k[5mC]*kA; antisense) [Compound 1076234]
YAP1 (% UTC) (Table 24, Yap1 mRNA as percent of untreated control, 3-10-3 cEt gapmers targeting SEQ ID NO.: 1, and 2): 24 % UTC

1076103 (kG*k[5mC]*kT*dT*dA*dA*d[5mC]*dA*dA*dA*dT*d[5mC]*dA*kG*k[5mC]*k[5mC]; antisense) [Compound 1076103]
YAP1 (% UTC) [1]: 79 % UTC

1074372 (antisense k[5mC]*kT*kT*dT*dG*dG*dT*dT*dG*dA*dT*dA*dG*kT*kA*kT) [Compound 1074372]
YAP1 (% UTC) [2]: 10 % UTC

1074439 (k[5mC]*kT*kG*dT*dG*dA*d[5mC]*dA*dT*dG*dA*dA*dG*k[5mC]*kA*kT; antisense) [Compound 1074439]
YAP1 (% UTC) [1]: 2* % UTC

1074130 (kA*kT*k[5mC]*d[5mC]*d[5mC]*d[5mC]*d[5mC]*dG*d[5mC]*d[5mC]*d[5mC]*d[5mC]*dG*kG*k[5mC]*kG; antisense) [compound 1074130]
YAP1 (% UTC) [3]: 119 % UTC

1074544 (k[5mC]*kT*k[5mC]*d[5mC]*d[5mC]*d[5mC]*dT*dA*dG*dG*d[5mC]*dA*d[5mC]*kT*kA*kT; antisense) [compound 1074544]
YAP1 (% UTC) [4]: 34 % UTC

716390 (kT*k[5mC]*kT*d[5mC]*dT*dG*dG*dT*dT*d[5mC]*dA*dT*dG*kG*k[5mC]*kA; antisense) [Compound 716390]
YAP1 (% UTC) [5]: 66 % UTC

1074283 (antisense kA*kA*kA*dA*d[5mC]*dG*dA*dG*dG*dG*dT*d[5mC]*dA*kA*kG*k[5mC]) [Compound 1074283]
YAP1 (% UTC) [6]: 12 % UTC

1076403 (antisense kA*kT*kT*dT*dA*dA*dG*dA*d[5mC]*d[5mC]*dT*dG*dG*kT*kG*kA) [compound 1076403]
YAP1 (% UTC) (Table 33, Yap1 mRNA, percent of untreated control, 3-10-3 cEt gapmers targeting SEQ ID NO.: 1, and 2): 26 % UTC

1075174 (antisense k[5mC]*k[5mC]*kT*dG*dA*dA*dA*dA*dG*dA*d[5mC]*dA*dG*kT*k[5mC]*k[5mC]) [Compound 1075174]
YAP1 (% UTC) [7]: 74 % UTC

1075634 (antisense kA*kG*kA*d[5mC]*dT*dA*dT*dA*dT*dT*dG*dG*d[5mC]*kT*k[5mC]*k[5mC]) [compound 1075634]
YAP1 (% UTC) [3]: 65 % UTC

1074568 (antisense kG*kA*kA*d[5mC]*d[5mC]*dT*dA*d[5mC]*dT*d[5mC]*dA*d[5mC]*dT*kG*kA*kA) [Compound 1074568]
YAP1 (% UTC) [8]: 12 % UTC

1074633 (antisense kG*kA*kG*dG*d[5mC]*dT*dT*dT*dT*d[5mC]*dA*dT*dA*kG*k[5mC]*kA) [Compound 1074633]
YAP1 (% UTC) [9]: 78 % UTC

1074469 (k[5mC]*k[5mC]*k[5mC]*dA*d[5mC]*d[5mC]*dG*dA*d[5mC]*d[5mC]*d[5mC]*dT*dG*k[5mC]*k[5mC]*kA; antisense) [Compound 1074469]
YAP1 (% UTC) [10]: 77 % UTC

1074341 (antisense kA*kT*k[5mC]*d[5mC]*d[5mC]*dG*dG*dG*dA*dG*dA*dA*dG*kA*k[5mC]*kA) [Compound 1074341]
YAP1 (% UTC) [10]: 106 % UTC

1075717 (k[5mC]*kA*kT*dA*dA*dA*dT*dT*dT*d[5mC]*dA*dG*d[5mC]*k[5mC]*kG*kA; antisense) [Compound 1075717]
YAP1 (% UTC) [10]: 10 % UTC

1075538 (kG*kA*kA*dT*dT*dG*dG*dA*dA*d[5mC]*dA*d[5mC]*d[5mC]*kT*k[5mC]*kA; antisense) [compound 1075538]
YAP1 (% UTC) [3]: 66 % UTC

1075781 (k[5mC]*kA*kT*dA*dT*dA*dT*dT*dG*dT*dG*dA*d[5mC]*kT*kT*k[5mC]; antisense) [Compound 1075781]
YAP1 (% UTC) [10]: 2 % UTC

1074505 (kA*kA*kT*d[5mC]*dG*dA*dG*dA*dT*dT*dT*dA*dA*kA*kT*kA; antisense) [Compound 1074505]
YAP1 (% UTC) [9]: 83 % UTC

1074501 (kA*k[5mC]*kT*dA*d[5mC]*dA*dA*dT*dA*dA*d[5mC]*d[5mC]*dA*kT*k[5mC]*k[5mC]; antisense) [Compound 1074501]
YAP1 (% UTC) [10]: 9 % UTC

716531 (antisense kG*kG*kA*d[5mC]*dA*dT*dA*dA*dA*dA*d[5mC]*dA*dA*kG*kA*kG) [Compound 716531]
YAP1 (% UTC) [5]: 65 % UTC

716471 (k[5mC]*k[5mC]*kT*dA*d[5mC]*dT*d[5mC]*dA*d[5mC]*dT*dG*dA*dA*kT*kT*k[5mC]; antisense) [Compound 716471]
YAP1 (% UTC) [5]: 48 % UTC

1074347 (antisense kG*kT*kT*dA*dA*dG*dG*dA*dA*dA*dG*dG*dA*kT*k[5mC]*kT) [Compound 1074347]
YAP1 (% UTC) [6]: 34 % UTC

1074440 (kG*k[5mC]*kT*dG*dT*dG*dA*d[5mC]*dA*dT*dG*dA*dA*kG*k[5mC]*kA; antisense) [Compound 1074440]
YAP1 (% UTC) [8]: 38* % UTC

1076146 (kG*k[5mC]*kT*dA*dA*dA*dA*d[5mC]*dT*dT*dT*d[5mC]*dA*kT*k[5mC]*k[5mC]; antisense) [compound 1076146]
YAP1 (% UTC) [3]: 23 % UTC

1075345 (antisense kG*kT*kA*dA*d[5mC]*dT*dA*dA*dA*dA*dG*dG*dG*kA*kG*kT) [compound 1075345]
YAP1 (% UTC) (Yap1 mRNA as percent of untreated control, A-431 cells, 3-10-3 cEt gapmers targeting SEQ ID NO.: 1, and 2, Table 31): 29 % UTC

1074507 (kA*kT*kA*dA*dT*d[5mC]*dG*dA*dG*dA*dT*dT*dT*kA*kA*kA; antisense) [Compound 1074507]
YAP1 (% UTC) [6]: 74 % UTC

716544 (antisense kT*kA*k[5mC]*dT*dT*dA*dA*d[5mC]*dA*d[5mC]*dA*dG*d[5mC]*kA*kA*k[5mC]) [Compound 716544]
YAP1 (% UTC) (A-431 cells, 5,000 cells per well, free uptake, 2,000 nM modified oligonucleotide, approx. 48 hours, RTS4814, normalized to RIBOGREEN, Table 4, asterisk (*) = targets amplicon region of primer probe set): 71 % UTC

1075398 (antisense kT*kA*kT*dA*dT*dA*dT*dG*dG*d[5mC]*d[5mC]*d[5mC]*dT*kT*kT*kA) [Compound 1075398]
YAP1 (% UTC) [7]: 49 % UTC

716428 (kA*k[5mC]*kA*dG*dG*d[5mC]*dT*d[5mC]*dA*d[5mC]*dT*dT*d[5mC]*k[5mC]*k[5mC]*k[5mC]; antisense) [Compound 716428]
YAP1 (% UTC) (Table 5, A-431 cells, 5,000 cells per well, free uptake, 2,000 nM modified oligonucleotide, approx. 48 hours, RTS4814, normalized to RIBOGREEN, Yap1 mRNA relative to untreated control cells): 10 % UTC

1075077 (antisense kT*kA*kT*dA*d[5mC]*dG*dG*dT*d[5mC]*d[5mC]*dA*dT*dA*kA*k[5mC]*kA) [Compound 1075077]
YAP1 (% UTC) [10]: 35 % UTC

1076486 (antisense kG*kA*kA*dA*d[5mC]*dG*dA*dA*dA*d[5mC]*dG*dG*dG*kA*kA*kA) [Compound 1076486]
YAP1 (% UTC) [7]: 5 % UTC

1074665 (antisense kT*kT*kG*d[5mC]*dA*dT*dT*d[5mC]*dT*dA*dG*dG*dT*kA*kG*kA) [Compound 1074665]
YAP1 (% UTC) [9]: 17 % UTC

1074823 (kG*kA*kG*d[5mC]*dA*d[5mC]*dT*d[5mC]*dA*dT*dT*dT*d[5mC]*kT*k[5mC]*kA; antisense) [Compound 1074823]
YAP1 (% UTC) [1]: 77 % UTC

1074213 (antisense kG*kA*kG*dT*d[5mC]*dG*dG*dG*d[5mC]*dA*dG*d[5mC]*dT*kT*k[5mC]*k[5mC]) [Compound 1074213]
YAP1 (% UTC) [10]: 55 % UTC

1076400 (antisense kG*kT*kT*dA*dA*dA*dA*dG*d[5mC]*d[5mC]*dG*dT*dG*kA*kA*kA) [compound 1076400]
YAP1 (% UTC) [4]: 10 % UTC

1076132 (k[5mC]*kA*kT*d[5mC]*dA*dA*dT*dA*d[5mC]*dT*dG*dA*d[5mC]*kA*kT*k[5mC]; antisense) [Compound 1076132]
YAP1 (% UTC) [2]: 28 % UTC

716516 (antisense kA*kA*k[5mC]*dT*dT*dT*d[5mC]*d[5mC]*d[5mC]*dA*d[5mC]*d[5mC]*d[5mC]*kT*k[5mC]*k[5mC]) [Compound 716516]
YAP1 (% UTC) [5]: 84 % UTC
